# Measured values reported in patent US20240245677A1, “SELECTED COMPOUNDS FOR TARGETED DEGRADATION OF BRD9” (C4 THERAPEUTICS, INC., priority 2021, published 2024).
# Legend:
# [1] = Monkey Hepatocyte Stability Assay; assay type: in vitro ADME, cynomolgus monkey; conditions: cryopreserved hepatocytes
# Method: (§1) The metabolic stability of Compound 1 was evaluated using cryopreserved hepatocytes from mice, rats, dogs, cynomolgus monkeys, and humans.
# (§2) 50 μL of 1 mM intermediate solutions for each test compound was prepared by adding 5 μL of 10 mM stock solution to 45 μL of a 1:1 mixture of water and acetonitrile. A 2 μM working stocks for each test compound were prepared in incubation media, InvitroGRO™ KHB (Bio IVT, Westbury, NY, USA), by adding 2 μL of 1 mM intermediate stock to 998 μL of incubation media.
# (§3) To thaw the hepatocytes, InvitroGRO™ HT thawing medium (BioIVT, Westbury, NY, USA) was prewarmed to 37° C., and 48 mL of warmed thawing medium was transferred to a sterile 50 mL conical tube. The hepatocyte vial was removed from the liquid nitrogen Dewar, and gently thawed in a water bath at 37° C. for 1-2 minutes, then the contents of the vial were emptied into a conical tube with prewarmed InvitroGRO HT medium. 1 mL of prewarmed InvitroGRO HT medium was added to each emptied hepatocyte vial to resuspend any remaining cells, and the contents were pipetted into the hepatocyte suspension. The tube containing the hepatocyte suspension was centrifuged at 50*g for 5 minutes. The supernatant was removed carefully, and the remaining pellet was resuspended by adding 1 mL of incubation media, InvitroGRO KHB, and gently shaking until there were no clumps.
# (§4) Cell viability was determined using the trypan blue method. 25 μL of hepatocyte cell suspension was added to a trypan blue (TB) solution (containing 775 μL InvitroGRO KHB and 200 μL of Trypan Blue). Cell count was taken using a hemacytometer.
# (§5) For mouse hepatocytes, 200 μL of hepatocytes (0.8×10^6 cells/mL) were added to the wells of a 48 well plate (Catalog No. 92048, TPP Techno Plastic Products AG, Trasadingen, Switzerland) and pre-incubated for 30 minutes at 37° C. For rat, dog, monkey, […], 200 μL of hepatocytes (2×10^6 cells/mL) were added to the wells of a 48 well plate (Catalog No. 92048, TPP Techno Plastic Products AG, Trasadingen, Switzerland) and pre-incubated for 30 minutes at 37° C.
# (§6) For all species of hepatocytes, once the pre-incubation period was complete, 200 μL of 2 μM working stock of test compound was added to the wells of the plate, and the plate was vortexed on a Vibramax™ 100 (P/N 544-21200-00, Heidolph Instruments GmbH & Co. KG, Schwabach, Germany) at 500 rpm in a 37° C. CO2 incubator (Model No. 51026280, ThermoFisher Scientific, Waltham, MA, USA). At each time point of 0, 15, 30, 60, 90, and 120 minutes, 50 μL of incubation mixture was precipitated with 200 μL of acetonitrile containing internal standard.
# (§7) At the end of the experiment, the samples were centrifuged at 4000 rpm for 10 minutes. […]
# [2] = system: cryopreserved hepatocytes from cynomolgus monkeys; test: Monkey Hepatocyte Stability Assay; assay type: in vitro ADME, cynomolgus monkey
# Method: as §1, §2, §3, §4, §5, §6, §7
# [3] = Crystallization from hot saturated solutions by slow cooling; assay type: physicochemical; conditions: for Comments / XRPD: hot saturated solution
# Method: Samples with no precipitates were put in −20° C. freezer for crystallization. Precipitates were collected by centrifuged. Solid parts (wet cakes) were investigated by XRPD.
smiles,measurement,setting,value
"COc1cc(-c2cn(C)c(=O)c(C)c2C)cc(OC)c1CN1CC[C@H](N2CCN(c3ccc(N[C@H]4CCC(=O)NC4=O)cc3F)CC2)C(F)(F)C1 [Compound 1, (S)-3-((4-(4-((S)-1-(2,6-dimethoxy-4-(1,4,5-trimethyl-6-oxo-1,6-dihydropyridin-3-yl)benzyl)-3,3-difluoropiperidin-4-yl)piperazin-1-yl)-3-fluorophenyl)amino)-piperidine-2,6-dione]",half-life at 1 µM,[1],44.2 min
same,hepatocyte CLint at 1 µM,[1]; read-out: CL int cells,15.7 µL/min/1e6 cells
same,CLint scaled at 1 µM,[1]; read-out: CL int in vivo,56.5 mL/min/kg
same,CLhb scaled well stirred,[2],24.7 mL/min/kg body wt.
same,Comments: form after seeding,"[3]; 2-MeTHF, add Pattern G as seeds, slurry for 5 days",Pattern G
same,Comments,[3]; 2-MeTHF,Clear solution
same,XRPD,[3]; Acetone,Pattern B
same,XRPD,[3]; Ethanol,Pattern F
same,Comments,[3]; Ethyl acetate,Clear solution
same,Comments,[3]; Methanol,Clear solution
